Each structure is given as a SMILES string.

The test system of experiment [1] is LPS induced IL-23 (p19/p40) in DC cells differentiated from human PBMC. Kind of experiment: IL23-p19 ELISA, dendritic cells (DC differentiated from human PBMC), IFNγ primed, LPS stimulated. The class given is cell-based. To be noted: human PBMC-derived dendritic cells, 1 μg/ml LPS, 18 hours, 10 pt. On the procedure: Compound Screening Using DC Cells
1. Differentiation of PBMC's to DC Cells:
Human PBMC cells (400 million) obtained from the vendor were transferred into a T-175 flask containing 15 ml RPMI media (10% FBS) and incubate for 2 hours at 37° C. After 2 hours, the media including floating cells was aspirated out carefully and 12 ml of fresh RPMI media (10% FBS) containing GMCSF (100 ng/ml) and IL4 (20 ng/ml) was added, and the flask was kept in a 37° C. incubator for 7 days.
After 3 days, fresh GMCSF (100 ng/ml) and IL4 (20 ng/ml) were added to the flask and the incubation continued. After 7 days, the fully differentiated cells were harvested by spinning down (1200 rpm/5 min) and aspirating the media. The cells were suspended in fresh RPMI media (10% FBS) containing 50 ng/ml IFNγ (1000 U/ml) and then plated (50K/well in 100 μl) onto a white clear bottom 96 well plate and left in a 37° C. incubator for 24 hours.
2. Addition of Compounds:
After 24 hours incubation, 100 μl of RPMI media was added containing 2× concentrated test compound per well to the above cell-culture media (final concentration becomes 1×) and the plates were pre-incubated for 1 hour at 37° C. before stimulating with LPS.
After 1 hour compound pre-incubation, 10 μl per well of 20× concentrated LPS solution in RPMI media was added to give a final concentration of 1 μg/ml. The mixture was shaken and incubated the plates at 37° C. for an additional 18 hours.
155 μl of the supernatant was harvested from each well carefully (without the tip touching the bottom of the well) and to the remaining 50 μl/well of the cell culture plate was added 50 μl of Cell Titer Glo reagent. The mixture was incubated for 1-2 minutes on a shaker and the plate was read for luminescence intensity to determine the compound cytotoxicity. The cell culture supernatant collected above was used to carry out IL23 ELISA (65 μl-Supernatant) and IL10 ELISA (90 μl-Supernatant) as described below.
Human IL-23 (p19/p40) ELISA Protocol (e-Biosciences)
To 10.5 ml PBS add 50 μl of anti-IL23 (p19) was added capture antibody (2.5 μg/ml). The mixture was mixed well and 100 μl of the coating solution was added to each well of the 96 well white plates from Pierce. The wells were covered and incubated overnight at 4° C.
The anti-IL23 (p19)-antibody-coated plates were washed 2× using TBST (use plate washer) and blocked using 200 μl of 0.5% Casein for 1.5-2 hours at room temperature with shaking.
The plates were washed 2× using TBST and the supernatant was transferred (65 μl/well) to the above pre-blocked/IL23 (p19)-antibody-coated 96 well plate, and incubated at room temperature for 1.5 hours with shaking.
The plates were washed 4× using TBST (plate washer) and 100 μl/well detection antibody solution prepared from 2 μl of biotin labeled anti-IL-12 (p40/p70) antibody in 11 ml 1% BSA/PBS solution (1-5000 dilution) was added. The plates were incubated for 1 hour with shaking at room temperature.
Again, the plates were washed 4× with TBST and 100 μl of HRP labeled Streptavidin (R&D Systems) solution (10 μl/10 ml 1% BSA solution) was added, and the plates were incubated at room temperature for another 45 minutes with shaking.
After 45 minutes, the plates were washed with TBST 4× and 100 ul/well Super Signal ELISA Pico Chemiluminescent Substrate from Pierce (3.5 ml A+3.5 ml B+3.5 ml MQ water) was added. The plates were shaken for 1-2 minutes then read on a plate reader.
In general terms: An ELISA detects its analyte on a solid surface through an enzyme-linked reagent.

In experiment [2] the test system is LPS induced IL23p19 in THP-1 cells. The experiment in a line: LPS Induced IL23p19 in THP-1 Cells (with IFNγ Primed) Assay. Format: cell-based. The following applies: Homo sapiens; THP-1 cells primed with IFNγ 50 ng/mL, 1 μg/mL LPS, 18 hours, 10 pt; read-out: IL23-p19 ELISA, THP1-IFNy, LPS, 10 pt EC50. An excerpt: LPS Induced IL23p19 in THP-1 Cells (with IFNγ Primed) Assay
THP-1 Cells (ATCC, Cat # TIB-202), Dimethyl Sulfoxide (DMSO) (Sigma-Aldrich, Cat # D2650), RPMI 1640 (Cellgro, Cat #10-040-CM), Fetal Bovine Serum (Sigma, Cat # F4135), Albumin From Bovine Serum (BSA) (Sigma-Aldrich, Cat # A7906), LPS (Serotype K-235, Sigma, Product Number L 2143), IFNγ (Peprotech, Cat #300-02), Capture antibody: Human IL-23p19 ELISA (e-Bioscience, Cat. #14-7238-85), Detection antibody: Primary Mouse Biotinylated anti-human IL-12 (p40/p70) (e-Bioscience, Cat. #13-7129-85), Secondary HRP-conjugated Streptavidin (R&D Systems, Cat # DY998), 1×PBST Washing Buffer (PBS-Tween tablet) (VWR International, Cat #80058-558), ELISA Blocking Buffer (PBS with 1% BSA), ELISA Dilution Buffer (PBS with 1% BSA), 384 Well Flat-Bottom, MaxiSorp Black Immuno Plates (Thermo Scientific, Cat #12-565-346), 384 Well Flat-Bottom, White Tissue Culture Plates (Thermo Scientific, Cat #12-565-343), Super Signal ELISA Pico Chemiluminescent Substrate (Thermo Scientific, Cat #37070), Cell Titer Glo reagent (Promega, Cat # G7573), Positive control, IKK2VI inhibitor (Calbiochem, Cat #401483), AquaMax 4000 plate washer (Molecular Devices), Luminometer, Wallac Victor2 1420 Multilabel Counter.
On day 1, 50K/well THP-1 cells were seeded and primed with IFNγ (50 ng/mL) in 384-well plates for about 18 hours in RPMI media with 10% FBS. On day 2, the compound was serially diluted in DMSO from 5 mM in 3-fold dilutions, and then diluted 1:125 in RPMI media with 10% FBS. 50 μL/well 2× compound was added to 50 μL/well THP-1 cells (with IFNγ primed) in duplicate in 384 well tissue culture plates. The cells were pre-incubated with compound for 1 hour at 37° C., 5% CO2 before addition of 10 μL/well 11×LPS to give a final concentration of 1 μg/mL LPS. Day 3, after stimulation for 18 hours at 37° C., 5% CO2, the assay plate was centrifuged and 70 μL/well supernatant was harvested. IL-23p19 protein in 70 μL/well of supernatant was measured by sandwich ELISA, and 25 μl/well Cell Titer Glo reagent was added to the remaining cells to measure compound toxicity.
Human IL-23p19 Sandwich ELISA:
Maxisorp immuno ELISA plates were pre-coated with 25 μL/well of anti-IL-23p19 capture antibody (2.5 ug/mL) in PBS overnight at room temperature. After washing with 1×PBST, the plates were blocked using 100 μL/well of 1% BSA in PBS for 2 hours at room temperature. The plates were washed three times with 1×PBST and 70 μL/well supernatant were added. The plates were incubated at room temperature for 2 hours with shaking and washed three times with 1×PBST. 25 μL/well of biotin labeled anti-IL-12 (p40/p70) detection antibody (100 ng/mL) in PBS with 1% BSA was added and the plates were incubated at room temperature for 2 hours with shaking. After washing three times with 1×PBST, 25 μL/well of streptavidin-HRP (1:200) in PBS with 1% BSA was added and the plates were incubated at room temperature for 20 minutes with shaking. The plates were washed three times with 1×PBST and 25 μL/well of Super Signal ELISA Pico Chemiluminescent Substrate were added. The plates were read with a luminometer, and the chemiluminescence values were entered into Athena (Rigel) for curve fitting, EC50 calculation, and database storage.

For the compound `CN1CCN(c2ccc(NC(=O)c3cccc(-c4cn[nH]c4)n3)c(N3CCCCC3)c2)CC1` [I-1, N-(4-(4-methylpiperazin-1-yl)-2-(piperidin-1-yl)phenyl)-6-(1H-pyrazol-4-yl)picolinamide], the EC50 (in general, the concentration needed to bring the measured effect to its halfway point) turned out to be 843 nM in experiment [1] and 308 nM in experiment [2].
Taken in the same sequence, the figures for `CN1CCN(c2ccc(NC(=O)c3ccc(-c4cn[nH]c4)o3)c(N3CCCCC3)c2)CC1` [I-2, N-(4-(4-methylpiperazin-1-yl)-2-(piperidin-1-yl)phenyl)-5-(1H-pyrazol-4-yl)furan-2-carboxamide] were 120 nM and 36.8 nM.
The like results for `CN1CCN(c2ccc(NC(=O)c3csc(-c4cn[nH]c4)n3)c(N3CCCCC3)c2)CC1` [I-3, N-(4-(4-methylpiperazin-1-yl)-2-(piperidin-1-yl)phenyl)-2-(1H-pyrazol-4-yl)thiazole-4-carboxamide] were, in that order, 71.2 nM and 25.9 nM.
With `O=C(Nc1ccc(N2CCOCC2)cc1N1CCC(F)CC1)c1cccc(-c2cn[nH]c2)n1` [I-4, N-(2-(4-fluoropiperidin-1-yl)-4-morpholinophenyl)-6-(1H-pyrazol-4-yl)picolinamide], the 50% effective concentration (EC50) stood at 3600 nM in experiment [1] and 314 nM in experiment [2].
Take `O=C(Nc1ccc(N2CCOCC2)cc1N1CCC(F)CC1)c1ccc(-c2cn[nH]c2)o1` [I-5, N-(2-(4-fluoropiperidin-1-yl)-4-morpholinophenyl)-5-(1H-pyrazol-4-yl)furan-2-carboxamide]: the EC50 came out at 182 nM in experiment [1] and 145 nM in experiment [2].
The like results for `O=C(Nc1ccc(N2CCOCC2)cc1N1CCC(F)CC1)c1csc(-c2cn[nH]c2)n1` [I-6, N-(2-(4-fluoropiperidin-1-yl)-4-morpholinophenyl)-2-(1H-pyrazol-4-yl)thiazole-4-carboxamide] were, in that order, 114 nM and 76.4 nM.
Taken in the same sequence, the figures for `CN1CCN(c2ccc(NC(=O)c3cccc(-c4cn[nH]c4)n3)c(N3CCC(F)CC3)c2)CC1` [I-7, N-(2-(4-fluoropiperidin-1-yl)-4-(4-methylpiperazin-1-yl)phenyl)-6-(1H-pyrazol-4-yl)picolinamide] were 689 nM and 880 nM.
Taken in the same sequence, the figures for `CN1CCN(c2ccc(NC(=O)c3ccc(-c4cn[nH]c4)o3)c(N3CCC(F)CC3)c2)CC1` [I-8, N-(2-(4-fluoropiperidin-1-yl)-4-(4-methylpiperazin-1-yl)phenyl)-5-(1H-pyrazol-4-yl)furan-2-carboxamide] were 182 nM and 63.7 nM.
Take `CN1CCN(c2ccc(NC(=O)c3csc(-c4cn[nH]c4)n3)c(N3CCC(F)CC3)c2)CC1` [I-9, N-(2-(4-fluoropiperidin-1-yl)-4-(4-methylpiperazin-1-yl)phenyl)-2-(1H-pyrazol-4-yl)thiazole-4-carboxamide]: the EC50 came out at 67.2 nM in experiment [1] and 36 nM in experiment [2].
Taken in the same sequence, the figures for `O=C(Nc1ccc(N2CCOCC2)cc1N1CCC(O)CC1)c1cccc(-c2cn[nH]c2)n1` [I-10, N-(2-(4-hydroxypiperidin-1-yl)-4-morpholinophenyl)-6-(1H-pyrazol-4-yl)picolinamide] were 1740 nM and 303 nM.
As for `O=C(Nc1ccc(N2CCOCC2)cc1N1CCC(O)CC1)c1ccc(-c2cn[nH]c2)o1` [I-11, N-(2-(4-hydroxypiperidin-1-yl)-4-morpholinophenyl)-5-(1H-pyrazol-4-yl)furan-2-carboxamide], the EC50 was determined as 162 nM in experiment [1] and 134 nM in experiment [2].
Taken in the same sequence, the figures for `O=C(Nc1ccc(N2CCOCC2)cc1N1CCC(O)CC1)c1csc(-c2cn[nH]c2)n1` [I-12, N-(2-(4-hydroxypiperidin-1-yl)-4-morpholinophenyl)-2-(1H-pyrazol-4-yl)thiazole-4-carboxamide] were 60 nM and 84.1 nM.
The like results for `O=C(Nc1ccc(N2CCOCC2)cc1N1CCOCC1)c1cccc(-c2cn[nH]c2)n1` [I-13, N-(2,4-dimorpholinophenyl)-6-(1H-pyrazol-4-yl)picolinamide] were, in that order, 14400 nM and 1730 nM.
In the case of `O=C(Nc1ccc(N2CCOCC2)cc1N1CCC(F)(F)CC1)c1cccc(-c2cn[nH]c2)n1` [I-19, N-(2-(4,4-difluoropiperidin-1-yl)-4-morpholinophenyl)-6-(1H-pyrazol-4-yl)picolinamide], the concentration giving a half-maximal response (EC50) in experiment [2] was found to be 2520 nM.
The same measure, in the same setting: to `COc1ccc(N2CCOCC2)cc1NC(=O)c1ccc(-c2cn[nH]c2)o1` [I-40, N-(2-methoxy-5-morpholinophenyl)-5-(1H-pyrazol-4-yl)furan-2-carboxamide] belongs 3380 nM; to `O=C(Nc1ccc(CCN2CCOCC2)cc1N1CCCCC1)c1ccc(-c2cn[nH]c2)o1` [I-55, N-(4-(2-morpholinoethyl)-2-(piperidin-1-yl)phenyl)-5-(1H-pyrazol-4-yl)furan-2-carboxamide], 9780 nM; to `O=C(Nc1cc(N2CCOCC2)ccc1N1CCCCC1)c1cccc(-c2cn[nH]c2)n1` [I-75, N-(5-morpholino-2-(piperidin-1-yl)phenyl)-6-(1H-pyrazol-4-yl)picolinamide], 52800 nM.

Source of the values: patent publication US10590121B2, “Kinase inhibitors and methods for making and using” (Rigel Pharmaceuticals, Inc., priority 2017, dated 2020).
